pKi: −log10 of the molar value.

From patent publication US8735391B2, “Synthesis of functionalized octahydro-isoquinolin-1-one-8-carboxamides, octahydro-isoquinolin-1-one-8-carboxylic esters and analogs, and therapeutic methods” (University of Kansas, priority 2008, dated 2014) come the findings set out here.

Assay [1] addresses T1, KOR (Homo sapiens, UniProt P41145). In words: Opioid secondary binding, KOR (Tables 4, 5, 8, 9). The note with it: Opioid secondary binding activity for Formula 10 analogs; read-out: KOR, Ki.
The target of another assay is MOR (Homo sapiens, UniProt P35372). In words: Opioid secondary binding, MOR (Tables 4, 5, 8). The note with it: Opioid secondary binding activity for Formula 10 analogs; read-out: MOR, Ki.
Sequence of MOR (P35372 whole entry): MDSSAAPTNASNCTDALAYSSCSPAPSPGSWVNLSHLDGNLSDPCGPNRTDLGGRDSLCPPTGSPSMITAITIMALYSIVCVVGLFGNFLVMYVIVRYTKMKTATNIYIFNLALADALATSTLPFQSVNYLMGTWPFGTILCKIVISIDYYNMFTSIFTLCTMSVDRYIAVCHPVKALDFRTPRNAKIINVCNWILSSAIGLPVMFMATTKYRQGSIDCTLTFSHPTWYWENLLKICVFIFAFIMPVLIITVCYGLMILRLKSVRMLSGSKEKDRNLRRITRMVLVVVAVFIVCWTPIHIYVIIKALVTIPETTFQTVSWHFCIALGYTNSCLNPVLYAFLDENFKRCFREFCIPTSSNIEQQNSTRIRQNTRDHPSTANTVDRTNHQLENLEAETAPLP
A further assay deals with DOR (Homo sapiens, UniProt P41143). In words: Opioid secondary binding, DOR (Table 4). The note with it: Opioid secondary binding activity for Formula 10 analogs.
Sequence of DOR (P41143 whole entry): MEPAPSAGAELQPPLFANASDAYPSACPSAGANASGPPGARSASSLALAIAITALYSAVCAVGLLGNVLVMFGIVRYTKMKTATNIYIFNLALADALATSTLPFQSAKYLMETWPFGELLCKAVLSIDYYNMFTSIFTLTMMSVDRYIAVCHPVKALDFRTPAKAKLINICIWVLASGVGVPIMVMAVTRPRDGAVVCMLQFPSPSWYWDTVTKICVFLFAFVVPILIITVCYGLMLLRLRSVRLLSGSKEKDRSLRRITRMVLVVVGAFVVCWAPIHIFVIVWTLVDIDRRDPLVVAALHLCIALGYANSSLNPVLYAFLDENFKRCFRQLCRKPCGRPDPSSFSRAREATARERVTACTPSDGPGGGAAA
Assay [2] deals with T1, KOR. In words: [35S]GTPγS binding functional agonist assay on membranes of CHO cells expressing hKOR (reference agonist U69593). The note with it: test compound at 10 micromolar; N=4; reference agonist = 100%; CHO-cell line expressing hKOR. Type of assay: biochemical. Further details: expressed in transfected cells; host or cells: CHO cells, stably transfected; crude membrane fractions. (GTPγS is a poorly hydrolysed GTP analogue; its binding reports G protein activation.)

T1 sequence (P41145 whole entry): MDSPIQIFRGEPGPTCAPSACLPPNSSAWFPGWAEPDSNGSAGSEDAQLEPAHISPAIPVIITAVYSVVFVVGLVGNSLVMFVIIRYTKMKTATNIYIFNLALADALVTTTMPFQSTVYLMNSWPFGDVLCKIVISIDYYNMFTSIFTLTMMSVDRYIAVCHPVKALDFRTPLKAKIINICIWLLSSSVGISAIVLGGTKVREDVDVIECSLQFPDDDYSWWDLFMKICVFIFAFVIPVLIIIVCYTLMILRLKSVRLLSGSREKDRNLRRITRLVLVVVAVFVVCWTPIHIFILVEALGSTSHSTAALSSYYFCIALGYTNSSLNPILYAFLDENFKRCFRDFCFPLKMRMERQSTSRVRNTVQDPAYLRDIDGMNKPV

As a reminder, the pKi is the negative decadic logarithm of the Ki, by convention in mol/L. For `O=C(Nc1ccccc1)[C@@H]1CC=C[C@@H]2CCN(Cc3ccc(Cl)c(Cl)c3)C(=O)[C@@H]21` (racemic) [compound 8941], the negative logarithm of the Ki (pKi) is 6.59 on KOR [1], 5.57 at MOR and 5.95 at DOR. The “KOR agonist (average percent efficacy relative to cognate agonist)” value at KOR [2] was found to be 79%.

Regarding `COc1ccc(CN2CC[C@H]3C=CC[C@@H](C(=O)N4CCN(c5ccccc5)CC4)[C@H]3C2=O)cc1OC` (racemic) [compound 8915], the negative logarithm of the Ki (pKi) on KOR [1] is 5.05; on MOR it was 5.26; on DOR it was 5.33. The “KOR agonist (average percent efficacy relative to cognate agonist)” value on KOR [2] came out at 6.7%.

Take `O=C1[C@H]2[C@H](C=CC[C@H]2C(=O)N2CCN(c3ccccc3)CC2)CCN1Cc1ccccc1` (racemic) [compound 8912]: the figures for the negative-log Ki (pKi) on KOR [1], at MOR and on DOR were 5.32, 5.62 and 5.41, respectively. Moreover, on KOR [2], the “KOR agonist (average percent efficacy relative to cognate agonist)” value was determined as 8%.

With `O=C(Nc1ccccc1)[C@@H]1CC=C[C@@H]2CCN(Cc3ccccc3)C(=O)[C@@H]21` (racemic) [compound 8937, 2-Benzyl-N-phenyl-1-oxo-1,2,3,4,4a,7,8,8a-octahydroisoquinoline-8-carboxamide], the negative logarithm of the Ki (pKi) on KOR [1] is 6.84; on MOR, 5.59; at DOR it was 6.07. Further, the “KOR agonist (average percent efficacy relative to cognate agonist)” value on KOR [2] came out at 136.6%.

For the compound `COc1ccc(CN2CC[C@H]3C=CC[C@@H](C(=O)Nc4ccccc4)[C@H]3C2=O)cc1OC` (racemic) [compound 8942], the results for the pKi at KOR [1], on MOR and on DOR were 5.51, 5.45 and 5.34, respectively. In addition, the “KOR agonist (average percent efficacy relative to cognate agonist)” value on KOR [2] was found to be 5.4%.
